For this data set, the system named is GENE-TOX genotoxicity assays, various organisms and cells. As to the kind of experiment: GENE-TOX mutagenicity studies. As to conditions: for call: Assay Type: In vivo carcinogenicity studies.
[1] abbreviates: Species/Cell Type: Salmonella typhimurium (one or more of the five standard strains: TA98, TA100, TA1535, TA1537, and TA1538), Assay Type: Histidine reverse gene mutation, Ames assay, Assay Code: SAL+, Evaluation Type: Evaluation A (Pre-1980).
Where [2] appears, read: Species/Cell Type: Saccharomyces cerevisiae, Assay Type: Mitotic recombination or gene conversion, Assay Code: YEC-, Evaluation Type: Evaluation A (Pre-1980).
Where [3] appears, read: Species/Cell Type: Salmonella typhimurium (one or more of the five standard strains: TA98, TA100, TA1535, TA1537, and TA1538), Assay Type: Histidine reverse gene mutation, Ames assay, Assay Code: SALT, Evaluation Type: Evaluation A (Pre-1980).
[4] abbreviates: Species/Cell Type: Human lymphocytes, Assay Type: Sister-chromatid exchange (SCE) in vitro, Assay Code: SCL+D, Dose Response: With dose response, Evaluation Type: Evaluation B (Post-1980).
[5] abbreviates: Species/Cell Type: Human, Assay Type: Sister-chromatid exchange (SCE) in vitro, Assay Code: SC1+D, Dose Response: With dose response, Evaluation Type: Evaluation B (Post-1980).
Setting [6] is: Species/Cell Type: Human, Assay Type: Sister-chromatid exchange (SCE) in vitro, Assay Code: SC1T, Evaluation Type: Evaluation B (Post-1980).
Where [7] appears, read: Species/Cell Type: Bacillus subtilis (H17 vs M45), Assay Type: Rec-assay, spot test, DNA effects (bacterial DNA repair), Assay Code: REW+, Evaluation Type: Evaluation A (Pre-1980).
[8] abbreviates: Species/Cell Type: Bacillus subtilis (H17 vs M45), Assay Type: Rec-assay, spot test, DNA effects (bacterial DNA repair), Assay Code: REW-, Evaluation Type: Evaluation A (Pre-1980).
Where [9] appears, read: Species/Cell Type: Saccharomyces cerevisiae, Assay Type: Reverse gene mutation, Assay Code: YERT, Evaluation Type: Evaluation A (Pre-1980).

Activity calls are given as the source filed them. The rule behind the calls is not given here.

For the compound `CN(N=O)C(=O)N[C@@H](C=O)[C@@H](O)[C@H](O)[C@H](O)CO`, the mutagenic call was “active; positive” (Species/Cell Type: Arabidopsis species, Assay Type: Gene mutation, Assay Code: ARM+D, Dose Response: With dose response, Evaluation Type: Evaluation A (Pre-1980)); “active; positive” (Species/Cell Type: Chinese hamster lung (V79) cells, Assay Type: Forward gene mutation at the HPRT or ouabain locus, Assay Code: V79+, Evaluation Type: Evaluation A (Pre-1980)); “active; positive” (Species/Cell Type: Escherichia coli polA (W3119 vs P3478), Assay Type: Rec-assay, DNA effects (bacterial DNA repair), Assay Code: RE1+, Evaluation Type: Evaluation A (Pre-1980)); “active; positive” (Species/Cell Type: Nonhuman, Assay Type: Sister-chromatid exchange (SCE) in vivo, Assay Code: SC3+, Evaluation Type: Evaluation B (Post-1980)); “active; positive” under setting [1]; “active; positive” (Species/Cell Type: Salmonella typhimurium, Assay Type: Forward and reverse gene mutation, body fluid assay, Assay Code: BFU+, Evaluation Type: Evaluation A (Pre-1980)). In addition, under “Species/Cell Type: Salmonella typhimurium, Assay Type: Forward and reverse gene mutation, host-mediated assay, Assay Code: HMA+, Evaluation Type: Evaluation A (Pre-1980)”, the mutagenic call is “active; positive”. For the same compound, where the note is “Species/Cell Type: Nonhuman, Assay Code: CCG+, Evaluation Type: Evaluation A (Pre-1980)”, the call is “active; positive”.
Consider `Cc1ccc2nc3sc(=O)sc3nc2c1`, for which the mutagenic call under setting [2] was “inactive; negative”.
Regarding `CCNc1nc(Cl)nc(NC(C)C)n1`, the mutagenic call by setting is: (Species/Cell Type: Aspergillus nidulans, Assay Type: Reverse gene mutation, Assay Code: ASR+*, Activation: With metabolic activation, Evaluation Type: Evaluation A (Pre-1980)) “active; positive”; (Species/Cell Type: Drosophila melanogaster, Assay Type: Aneuploidy, sex chromosome gain, chromosome aberrations, Assay Code: DAGT, Evaluation Type: Evaluation A (Pre-1980)) “no conclusion”; (Species/Cell Type: Drosophila melanogaster, Assay Type: Aneuploidy, whole sex chromosome loss, chromosome aberrations, Assay Code: DACT, Evaluation Type: Evaluation A (Pre-1980)) “no conclusion”; (Species/Cell Type: Drosophila melanogaster, Assay Type: Sex-linked recessive lethal gene mutation, Assay Code: SRLT, Evaluation Type: Evaluation A (Pre-1980)) “no conclusion”; (Species/Cell Type: Hordeum vulgare (barley), Assay Type: Chromosome aberrations, Assay Code: HOC+, Evaluation Type: Evaluation A (Pre-1980)) “active; positive”; (Species/Cell Type: Neurospora crassa, Assay Type: Aneuploidy, chromosome aberrations, Assay Code: NEN-, Evaluation Type: Evaluation A (Pre-1980)) “inactive; negative”. Moreover, the mutagenic call runs as follows: (Species/Cell Type: Saccharomyces cerevisiae, Assay Type: Mitotic recombination or gene conversion, Assay Code: YEC+*, Activation: With metabolic activation, Evaluation Type: Evaluation A (Pre-1980)) “active; positive”; (Species/Cell Type: Tradescantia species, Assay Type: Gene mutation, Assay Code: TRM-, Evaluation Type: Evaluation A (Pre-1980)) “inactive; negative”; (Species/Cell Type: Vicia faba, Assay Type: Chromosome aberrations, Assay Code: VIC+, Evaluation Type: Evaluation A (Pre-1980)) “active; positive”; (Species/Cell Type: Zea mays (corn), Assay Type: Gene mutation, Assay Code: ZEM+F, Evaluation Type: Evaluation A (Pre-1980)) “active; positive”.
For the compound `CC1=C[C@H]2[C@@]3(O)[C@H](C)[C@@H](O)[C@]4(O)[C@H]([C@@H]3C=C(CO)C[C@]2(O)C1=O)C4(C)C`, the mutagenic call is, setting by setting: (Species/Cell Type: Escherichia coli polA (W3119 vs P3478), Assay Type: Rec-assay, DNA effects (bacterial DNA repair), Assay Code: RE1T, Evaluation Type: Evaluation A (Pre-1980)) “no conclusion”; (Species/Cell Type: Saccharomyces cerevisiae, Assay Type: Mitotic recombination or gene conversion, Assay Code: YEH-, Evaluation Type: Evaluation A (Pre-1980)) “inactive; negative”.
As to `COc1ccc(C(=C(c2ccc(OC)cc2)c2ccc(OC)cc2)c2ccc(OC)cc2)cc1`, the mutagenic call under setting [3] is on record as “no conclusion”.
Consider `O=C(Nc1ccc([N+](=O)[O-])cc1Cl)c1cc(Cl)ccc1O`, for which the mutagenic call by setting is: under setting [4], “active; positive”; (Species/Cell Type: Human lymphocytes, Assay Type: Sister-chromatid exchange (SCE) in vivo, Assay Code: SCY+, Evaluation Type: Evaluation B (Post-1980)) “active; positive”; under setting [5], “active; positive”.
On to `C/C=C(C)/C=C/C=C(C)/C=C/C1=C(C)CCCC1(C)C`, for which, under setting [5], the mutagenic call was “active; positive”.
Turning to `O=c1oc2cc3occc3cc2c2ccncc12`, the mutagenic call under setting [6] is “no conclusion”.
As to `Cl`, the mutagenic call was “active; positive” under setting [7]; “inactive; negative” under setting [8]; “inactive; negative” (Species/Cell Type: Syrian hamster embryo (SA7/SHE) cells, Assay Type: Cell transformation, viral enhanced, Assay Code: CT7-, Evaluation Type: Evaluation A (Pre-1980)).
Consider `c1ccc2[nH]c(-c3cscn3)nc2c1`, for which the mutagenic call (Species/Cell Type: Aspergillus nidulans, Assay Type: Aneuploidy, chromosome aberrations, Assay Code: ASN+, Evaluation Type: Evaluation A (Pre-1980)) was “active; positive”; the mutagenic call (Species/Cell Type: Aspergillus nidulans, Assay Type: Mitotic recombination, Assay Code: ASGT, Evaluation Type: Evaluation A (Pre-1980)) was “no conclusion”; the mutagenic call (Species/Cell Type: Mammalian polychromatic erythrocytes, Assay Type: Micronucleus test, chromosome aberrations, Assay Code: MNT+, Evaluation Type: Evaluation B (Post-1980)) was “active; positive”.
Regarding `O=Cc1ccco1`, the mutagenic call is, setting by setting: under setting [4], “active; positive”; under setting [5], “active; positive”; under setting [1], “active; positive”.
With `O[C@H]1C=Cc2cc3c(ccc4ccccc43)cc2[C@@H]1O`, the mutagenic call was “inactive; negative” (Species/Cell Type: Chinese hamster lung (V79) cells, Assay Type: Forward gene mutation at the HPRT or ouabain locus, Assay Code: V79-*, Activation: With metabolic activation, Evaluation Type: Evaluation A (Pre-1980)); “active; positive” (Species/Cell Type: Nonhuman, Assay Type: Sister-chromatid exchange (SCE) in vitro, Assay Code: SC2+D, Dose Response: With dose response, Evaluation Type: Evaluation B (Post-1980)); “no conclusion” under setting [3]. The call (Species/Cell Type: Nonhuman, Assay Code: CCGT, Evaluation Type: Evaluation A (Pre-1980)) is on record as “no conclusion”.
Consider `CCCCC=O`, for which the mutagenic call (Species/Cell Type: Human lymphocytes, Assay Type: Sister-chromatid exchange (SCE) in vitro, Assay Code: SCL+, Evaluation Type: Evaluation B (Post-1980)) is “active; positive” and the mutagenic call (Species/Cell Type: Human, Assay Type: Sister-chromatid exchange (SCE) in vitro, Assay Code: SC1+, Evaluation Type: Evaluation B (Post-1980)) is “active; positive”.
Consider `C=CCOC(N)=O`, for which the mutagenic call (Species/Cell Type: Nonhuman, Assay Type: Sister-chromatid exchange (SCE) in vivo, Assay Code: SC3+D, Dose Response: With dose response, Evaluation Type: Evaluation B (Post-1980)) was “active; positive”.
Take `N#CO`: the mutagenic call (Species/Cell Type: Arabidopsis species, Assay Type: Gene mutation, Assay Code: ARM+, Evaluation Type: Evaluation A (Pre-1980)) was “active; positive”.
For the compound `CCOc1ccc(CC(=O)NN)cc1CN(CC)CC`, the mutagenic call under setting [9] is “no conclusion”.
Consider `COc1cccc2c1C(=O)c1c(O)c3c(c(O)c1C2=O)C[C@@](O)(C(C)=O)C[C@@H]3O[C@@H]1C[C@@H](N(C)C)[C@@H](O)[C@@H](C)O1`, for which the mutagenic call under setting [3] was “no conclusion”.
Consider `[Cl][Ce]([Cl])[Cl]`, for which the mutagenic call under setting [8] is “inactive; negative”.
Turning to `[Cl][Sb]([Cl])[Cl]`, the mutagenic call under setting [7] was “active; positive”.
With `O=S(=O)(O)c1ccc2c(N=Nc3ccc(S(=O)(=O)O)c4ccccc34)c(O)ccc2c1`, the mutagenic call under setting [2] was “inactive; negative”.
As for `COc1cccc2c1cc([N+](=O)[O-])c1c(C(=O)O)cc3c(c12)OCO3`, the mutagenic call runs as follows: under setting [4], “active; positive”; under setting [5], “active; positive”.
Regarding `C=C1C[C@@]23CC[C@H]4[C@@](C)(CCC[C@@]4(C)C(=O)O[C@@H]4O[C@H](CO)[C@@H](O)[C@H](O)[C@H]4O)[C@@H]2CC[C@]1(O[C@@H]1O[C@H](CO)[C@@H](O)[C@H](O)[C@H]1O[C@@H]1O[C@H](CO)[C@@H](O)[C@H](O)[C@H]1O)C3`, the mutagenic call under setting [6] is “no conclusion”.
In the case of `O=c1ccc2ccc3occc3c2o1`, the mutagenic call (Species/Cell Type: Mammalian cell culture, nonhuman, Assay Type: Micronucleus test in vitro, chromosome aberrations, Assay Code: MN&+, Evaluation Type: Evaluation A (Pre-1980)) was “active; positive” and the mutagenic call under setting [9] is reported as “no conclusion”.
As to `NC(=O)c1ccccc1C(N)=O`, under “Species/Cell Type: Nonhuman, Assay Code: CCG-, Evaluation Type: Evaluation A (Pre-1980)”, the call is “inactive; negative”.
On to `C=CC(OC(C)=O)c1ccccc1` (stereo not given), for which the mutagenic call under setting [3] is “no conclusion”.
As to `[Cl][Mo]([Cl])([Cl])([Cl])[Cl]`, the mutagenic call under setting [8] was “inactive; negative”.
Take `Cc1c2c(c(C)c3ccccc13)[C@H]1O[C@H]1c1ccccc1-2`: the mutagenic call by setting is: (Species/Cell Type: Drosophila melanogaster, Assay Type: Sex-linked recessive lethal gene mutation, Assay Code: SRL+, Evaluation Type: Evaluation A (Pre-1980)) “active; positive”; (Species/Cell Type: Mouse prostate cells, Assay Type: Cell transformation, Assay Code: CTM+D, Dose Response: With dose response, Evaluation Type: Evaluation A (Pre-1980)) “active; positive”; under setting [1], “active; positive”.
